The target of this assay is T1, Full-length USP19 (Homo sapiens, UniProt O94966).
T1 construct: Full-length USP19 was purchased from Boston Biochem (E-576); purchased Boston Biochem E-576
T1 sequence (O94966 1-1318): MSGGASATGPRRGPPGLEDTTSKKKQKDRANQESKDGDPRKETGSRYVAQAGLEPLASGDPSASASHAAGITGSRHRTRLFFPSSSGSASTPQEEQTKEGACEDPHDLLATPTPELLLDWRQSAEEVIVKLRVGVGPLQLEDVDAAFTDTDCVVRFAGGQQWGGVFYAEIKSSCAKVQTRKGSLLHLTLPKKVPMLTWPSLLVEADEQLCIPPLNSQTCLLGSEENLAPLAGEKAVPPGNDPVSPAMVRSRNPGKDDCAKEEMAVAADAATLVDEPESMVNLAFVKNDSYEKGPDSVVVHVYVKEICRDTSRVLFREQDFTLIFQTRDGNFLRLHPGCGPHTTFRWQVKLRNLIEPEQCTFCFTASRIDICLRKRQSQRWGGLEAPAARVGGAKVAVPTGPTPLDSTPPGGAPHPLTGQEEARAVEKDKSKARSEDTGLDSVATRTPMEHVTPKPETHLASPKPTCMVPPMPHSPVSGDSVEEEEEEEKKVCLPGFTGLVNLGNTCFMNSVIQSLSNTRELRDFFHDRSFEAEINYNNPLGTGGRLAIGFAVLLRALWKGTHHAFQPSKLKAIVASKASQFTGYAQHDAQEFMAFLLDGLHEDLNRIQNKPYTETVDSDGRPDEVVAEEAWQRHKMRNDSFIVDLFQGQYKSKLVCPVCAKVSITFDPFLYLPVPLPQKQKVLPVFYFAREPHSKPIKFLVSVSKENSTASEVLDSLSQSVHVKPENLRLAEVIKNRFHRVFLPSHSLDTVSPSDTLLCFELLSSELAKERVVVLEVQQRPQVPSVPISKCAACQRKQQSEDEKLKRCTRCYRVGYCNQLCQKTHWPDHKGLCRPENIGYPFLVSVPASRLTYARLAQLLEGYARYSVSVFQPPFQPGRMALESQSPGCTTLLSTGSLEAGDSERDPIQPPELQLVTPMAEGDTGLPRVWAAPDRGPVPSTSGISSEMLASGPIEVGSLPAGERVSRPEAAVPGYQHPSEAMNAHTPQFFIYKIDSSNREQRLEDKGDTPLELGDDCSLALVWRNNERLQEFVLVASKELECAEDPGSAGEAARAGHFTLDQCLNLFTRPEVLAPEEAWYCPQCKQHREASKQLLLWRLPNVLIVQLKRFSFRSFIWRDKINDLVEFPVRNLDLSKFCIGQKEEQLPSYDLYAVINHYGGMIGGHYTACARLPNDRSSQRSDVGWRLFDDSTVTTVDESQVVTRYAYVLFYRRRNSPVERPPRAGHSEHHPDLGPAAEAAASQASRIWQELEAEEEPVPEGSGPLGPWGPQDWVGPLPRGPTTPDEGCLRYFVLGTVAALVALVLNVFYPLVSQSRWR
Nature of the assay: USP19 fluorescence polarisation (FP) homogeneous assay with Ubiquitin-Lys-TAMRA substrate. Conditions: 2.5 nM USP19, 30 min pre-incubation, average of at least two duplicate experiments. Format: biochemical. The essentials:
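Full-length USP19 preincubated 30 min at RT with inhibitor (200 μM to 2 μM series, 8–18 points) before adding 500 nM Ubiquitin-Lys-TAMRA substrate.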
Usually IC50 stands for the point on the concentration scale where inhibition reaches its midpoint. As to `O=C(N1CCC(O)(Cn2cnc3c(cnn3C3CC3)c2=O)C2(CCCC2)C1)N1CCNC[C@H]1c1ccccc1` (stereo partly drawn) [Example 183, 1-Cyclopropyl-5-((10-hydroxy-7-((R)-2-phenylpiperazine-1-carbonyl)-7-azaspiro[4.5]decan-10-yl)methyl)-1,5-dihydro-4H-pyrazolo[3,4-d]pyrimidin-4-one], the IC50 is under 500 nM.
On to `C[C@H](CC(F)(F)F)C(=O)N1CCC(O)(Cn2ccc3nc(N(C)C)ncc3c2=O)C2(CCCC2)C1` (stereo partly drawn) [Example 58, 2-(Dimethylamino)-6-((10-hydroxy-7-((R)-4,4,4-trifluoro-2-methylbutanoyl)-7-azaspiro[4.5]decan-10-yl)methyl)pyrido[4,3-d]pyrimidin-5(6H)-one], for which the IC50 fell in the range of 500 to 5000 nM.
In the case of `CN(C)C(=O)c1cn(CC2(O)CCN(C(=O)N(C)CC3CCCCC3)CC23CCCC3)c(=O)cc1-c1ccccc1` (centres unmarked) [Example 82, N-(Cyclohexylmethyl)-10-((5-(dimethylcarbamoyl)-2-oxo-4-phenylpyridin-1(2H)-yl)methyl)-10-hydroxy-N-methyl-7-azaspiro[4.5]decane-7-carboxamide], the IC50 was under 500 nM.
For the compound `O=C(N1CC[C@@](O)(Cn2ccc(-c3ccccc3)cc2=O)C2(CCCC2)C1)N1CCNC[C@H]1c1ccccc1` [Example 287, 1-(((S)-10-Hydroxy-7-((R)-2-phenylpiperazine-1-carbonyl)-7-azaspiro[4.5]decan-10-yl)methyl)-4-phenylpyridin-2(1H)-one], the IC50 is under 500 nM.
Turning to `CC1(C)CCC(N2CCN(CC3(O)CCN(C(=O)NCc4ccccc4)CC34CCCC4)C(=O)C2)CC1` (centres unmarked) [Example 115, N-Benzyl-10-((4-(4,4-dimethylcyclohexyl)-2-oxopiperazin-1-yl)methyl)-10-hydroxy-7-azaspiro[4.5]decane-7-carboxamide], the IC50 lay within 500 to 5000 nM.
The same measure for `CS(=N)(=O)c1cn(CC2(O)CCN(C(=O)N3CCNC[C@H]3c3ccccc3)CC23CCCC3)c(=O)cc1-c1ccccc1` (stereo partly drawn) [Example 189, 1-((10-Hydroxy-7-((R)-2-phenylpiperazine-1-carbonyl)-7-azaspiro[4.5]decan-10-yl)methyl)-5-(S-methylsulfonimidoyl)-4-phenylpyridin-2(1H)-one]: under 500 nM; for `Cn1cc(-c2ccn(C[C@]3(O)CCN(C(=O)N4CCNC[C@H]4c4ccccc4)CC34CCCC4)c(=O)c2)cn1` [Example 329, 1-(((S)-10-Hydroxy-7-((R)-2-phenylpiperazine-1-carbonyl)-7-azaspiro[4.5]decan-10-yl)methyl)-4-(1-methyl-1H-pyrazol-4-yl)pyridin-2(1H)-one]: under 500 nM; for `C[C@H](CC(F)(F)F)C(=O)N1CCC(O)(CN2CC(C3CC3)OCC2=O)C2(CCCC2)C1` (stereo partly drawn) [Example 95, 6-Cyclopropyl-4-((10-hydroxy-7-((R)-4,4,4-trifluoro-2-methylbutanoyl)-7-azaspiro[4.5]decan-10-yl)methyl)morpholin-3-one]: 50000 to 250000 nM.
To `CSc1ncc2c(=O)n(CC3(O)CCN(C(=O)[C@H](C)CC(F)(F)F)CC34CCCC4)n(C)c2n1` (stereo partly drawn) [Example 64, 2-((10-Hydroxy-7-((R)-4,4,4-trifluoro-2-methylbutanoyl)-7-azaspiro[4.5]decan-10-yl)methyl)-1-methyl-6-(methylthio)-1,2-dihydro-3H-pyrazolo[3,4-d]pyrimidin-3-one] belongs 500 to 5000 nM.
The same measure for `O=C(N1CCC(O)(Cn2cnc(-c3ccccc3)cc2=O)C2(CCCC2)C1)N1CCNCC1c1cccnc1` (centres unmarked) [Example 274, 3-((10-Hydroxy-7-(2-(pyridin-3-yl)piperazine-1-carbonyl)-7-azaspiro[4.5]decan-10-yl)methyl)-6-phenylpyrimidin-4(3H)-one]: 500 to 5000 nM; for `CN(C)C(=O)[C@@H]1CCCN1C(=O)N1CCC(O)(Cn2cnc(-c3ccccc3)cc2=O)C2(CCCC2)C1` (stereo partly drawn) [Example 266, (2S)-1-(10-Hydroxy-10-((6-oxo-4-phenylpyrimidin-1(6H)-yl)methyl)-7-azaspiro[4.5]decane-7-carbonyl)-N,N-dimethylpyrrolidine-2-carboxamide]: 50000 to 250000 nM; for `O=C(N1CCC(O)(Cn2cnc(-c3ccccc3)cc2=O)C2(CCCC2)C1)N1CCC[C@H]1c1ccon1` (stereo partly drawn) [Example 265, 3-((10-Hydroxy-7-((S)-2-(isoxazol-3-yl)pyrrolidine-1-carbonyl)-7-azaspiro[4.5]decan-10-yl)methyl)-6-phenylpyrimidin-4(3H)-one]: 500 to 5000 nM.
With `O=C(N1CCC(O)(Cn2ncc(-c3ccccc3)cc2=O)C2(CCCC2)C1)N1CCOC[C@H]1c1ccccc1` (stereo partly drawn) [Example 280, 2-((10-Hydroxy-7-((R)-3-phenylmorpholine-4-carbonyl)-7-azaspiro[4.5]decan-10-yl)methyl)-5-phenylpyridazin-3(2H)-one], the IC50 is under 500 nM.
To `C[C@H](CC1CCCCC1)C(=O)N1CCC(O)(CN2CCNCC2=O)C2(CCCC2)C1` (some centres unmarked) [Example 39] belongs 500 to 5000 nM.
To `O=C(N1CCC(O)(Cn2cnc(-c3ccccc3)cc2=O)C2(CCC2)C1)N1CCNC[C@H]1c1ccccc1` (stereo partly drawn) [Example 306, 3-((9-Hydroxy-6-((R)-2-phenylpiperazine-1-carbonyl)-6-azaspiro[3.5]nonan-9-yl)methyl)-6-phenylpyrimidin-4(3H)-one] belongs under 500 nM; to `Cc1cn(CC2(O)CCN(C(=O)N3CCNC[C@H]3c3ccccc3)CC23CCCC3)c(=O)cn1` (stereo partly drawn) [Example 92, 1-((10-Hydroxy-7-((R)-2-phenylpiperazine-1-carbonyl)-7-azaspiro[4.5]decan-10-yl)methyl)-5-methylpyrazin-2(1H)-one], under 500 nM; to `O=C(N1CC[C@@](O)(Cn2ccc(C3CC3)cc2=O)C2(CCCC2)C1)N1CCNC[C@H]1c1ccccc1` [Example 327, 4-Cyclopropyl-1-(((S)-10-hydroxy-7-((R)-2-phenylpiperazine-1-carbonyl)-7-azaspiro[4.5]decan-10-yl)methyl)pyridin-2(1H)-one], under 500 nM.
As for `C[C@H](CC(F)(F)F)C(=O)N1CCC(O)(Cn2cnc3ccc(Cl)cc3c2=O)C2(CCCC2)C1` (stereo partly drawn) [Example 147, 6-Chloro-3-((10-hydroxy-7-((R)-4,4,4-trifluoro-2-methylbutanoyl)-7-azaspiro[4.5]decan-10-yl)methyl)quinazolin-4(3H)-one], the IC50 fell in the range of 500 to 5000 nM.
To `O=C(N1CCC(O)(Cn2cnc(-c3ccccc3)cc2=O)CC1)N1CCOC[C@H]1c1ccccc1` [Example 295, (R)-3-((4-Hydroxy-1-(3-phenylmorpholine-4-carbonyl)piperidin-4-yl)methyl)-6-phenylpyrimidin-4(3H)-one] belongs 500 to 5000 nM.
To `O=C1Cn2ccnc2CN1CC1(O)CCN(C(=O)N2CCNC[C@H]2c2ccccc2)CC12CCCC2` (stereo partly drawn) [Example 119, 7-((10-Hydroxy-7-((R)-2-phenylpiperazine-1-carbonyl)-7-azaspiro[4.5]decan-10-yl)methyl)-7,8-dihydroimidazo[1,2-a]pyrazin-6(5H)-one] belongs 500 to 5000 nM; to `CS(=O)(=O)c1cn(CC2(O)CCN(C(=O)N3CCNC[C@H]3c3ccccc3)CC23CCCC3)c(=O)cc1-c1ccccc1` (stereo partly drawn) [Example 188, 1-((10-Hydroxy-7-((R)-2-phenylpiperazine-1-carbonyl)-7-azaspiro[4.5]decan-10-yl)methyl)-5-(methylsulfonyl)-4-phenylpyridin-2(1H)-one], under 500 nM; to `C[C@H](CC1CCCCC1)C(=O)N1CCC(O)(CN2CCN(S(C)(=O)=O)CC2=O)C2(CCCC2)C1` (stereo partly drawn) [Example 49, 1-((7-((R)-3-Cyclohexyl-2-methylpropanoyl)-10-hydroxy-7-azaspiro[4.5]decan-10-yl)methyl)-4-(methylsulfonyl)piperazin-2-one], 500 to 5000 nM.
`CN(Cc1ccccc1)C(=O)N1CCC(O)(Cn2cnc(-c3ccccc3F)cc2=O)CC1` [Example 81, N-Benzyl-4-((4-(2-fluorophenyl)-6-oxopyrimidin-1(6H)-yl)methyl)-4-hydroxy-N-methylpiperidine-1-carboxamide]: the IC50 lay in the range of 50000 to 250000 nM.
